These results are taken from paper PMC10207715, “Dual inhibition of IDO1/TDO2 enhances anti-tumor immunity in platinum-resistant non-small cell lung cancer” (Cancer & Metabolism, 2023).

In assay [1] the target is T1, tryptophan 2,3-dioxygenase-2 (TDO2) (Homo sapiens, UniProt P48775).
T1 construct: full-length human TDO2, overexpressed in GL261 cells
Nature of the assay: cellular kynurenine colorimetric assay in GL261-hTDO2 cells, […] h. The format is cell-based.

Assay [2] concerns the target T2, indoleamine 2,3-dioxygenase-1 (IDO1) (Homo sapiens, UniProt P14902).
T2 construct: human IDO1 in expression vector F279-V5/hIDO1, stably transfected in LLC cells
Description: cellular kynurenine colorimetric assay in LLC-hIDO1 cells, […] h. In kind it is cell-based.

T1 sequence (P48775 whole entry): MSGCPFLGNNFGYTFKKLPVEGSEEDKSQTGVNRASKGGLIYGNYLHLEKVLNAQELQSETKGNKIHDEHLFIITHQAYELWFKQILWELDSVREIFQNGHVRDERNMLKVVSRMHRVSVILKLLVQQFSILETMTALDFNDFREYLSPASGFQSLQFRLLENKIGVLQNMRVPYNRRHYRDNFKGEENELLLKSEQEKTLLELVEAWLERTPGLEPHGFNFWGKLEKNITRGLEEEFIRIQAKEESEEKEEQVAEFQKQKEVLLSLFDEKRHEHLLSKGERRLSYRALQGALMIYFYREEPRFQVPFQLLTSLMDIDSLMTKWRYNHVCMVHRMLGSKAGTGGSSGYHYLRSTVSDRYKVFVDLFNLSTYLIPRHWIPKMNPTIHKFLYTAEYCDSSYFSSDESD
T2 sequence (P14902 whole entry): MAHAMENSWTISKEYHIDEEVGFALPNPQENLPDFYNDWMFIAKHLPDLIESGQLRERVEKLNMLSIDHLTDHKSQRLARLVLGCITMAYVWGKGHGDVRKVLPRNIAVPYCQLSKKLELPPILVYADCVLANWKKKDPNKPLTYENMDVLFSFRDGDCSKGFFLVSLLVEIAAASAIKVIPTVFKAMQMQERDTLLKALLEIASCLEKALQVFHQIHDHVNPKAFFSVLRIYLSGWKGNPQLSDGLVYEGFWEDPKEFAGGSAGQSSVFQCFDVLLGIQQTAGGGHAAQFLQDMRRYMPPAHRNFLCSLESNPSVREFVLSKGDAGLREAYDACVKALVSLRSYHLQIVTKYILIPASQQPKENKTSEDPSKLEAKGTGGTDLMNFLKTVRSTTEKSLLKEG

One may read the IC50 as the concentration needed to halve the response being measured. For the substance AT-0174, the results for the IC50 in assay [1] and in assay [2] were 250 nM and 170 nM, respectively.
